Measured values reported in the NIST ThermoML archive (doi:10.1021/je8006138).
Numbers after ± are expanded uncertainties.

Experiment: xn = mol fraction of the nth substance listed
Details: 101 kPa, Liquid; for viscosity: Capillary tube (Ostwald / Ubbelohde) method; for mass density: Pycnometric method

Q: Which results are given for `CCCCC(CC)COP(=O)(OCC(CC)CCCC)OCC(CC)CCCC` (configuration not stated) [tris(2-ethylhexyl) phosphate] + C1CCCCC1?
A: viscosity (293.15 K, x1 = 0.0997): 1.709 ± 0.012 mPa·s; viscosity (293.15 K, x1 = 0.1995): 2.71 ± 0.017 mPa·s; viscosity (293.15 K, x1 = 0.2978): 3.894 ± 0.025 mPa·s; viscosity (293.15 K, x1 = 0.4007): 5.246 ± 0.034 mPa·s; viscosity (293.15 K, x1 = 0.4965): 6.629 ± 0.042 mPa·s; viscosity (293.15 K, x1 = 0.582): 7.908 ± 0.05 mPa·s; viscosity (293.15 K, x1 = 0.6955): 9.64 ± 0.061 mPa·s; viscosity (293.15 K, x1 = 0.7732): 10.8 ± 0.069 mPa·s; viscosity (293.15 K, x1 = 0.8997): 12.64 ± 0.083 mPa·s; viscosity (293.15 K, x1 = 1): 14.09 ± 0.095 mPa·s; mass density (293.15 K, x1 = 0.0997): 823.7 ± 0.3 kg/m3; mass density (293.15 K, x1 = 0.1995): 852.5 ± 0.3 kg/m3; mass density (293.15 K, x1 = 0.2978): 871.1 ± 0.3 kg/m3; mass density (293.15 K, x1 = 0.4007): 885.8 ± 0.3 kg/m3; mass density (293.15 K, x1 = 0.4965): 895.8 ± 0.3 kg/m3; mass density (293.15 K, x1 = 0.582): 902.8 ± 0.3 kg/m3; mass density (293.15 K, x1 = 0.6955): 910.4 ± 0.4 kg/m3; mass density (293.15 K, x1 = 0.7732): 914.6 ± 0.4 kg/m3; mass density (293.15 K, x1 = 0.8997): 920.2 ± 0.4 kg/m3; mass density (293.15 K, x1 = 1): 923.8 ± 0.4 kg/m3; viscosity (298.15 K, x1 = 0.0997): 1.544 ± 0.011 mPa·s; viscosity (298.15 K, x1 = 0.1995): 2.423 ± 0.016 mPa·s; viscosity (298.15 K, x1 = 0.2978): 3.415 ± 0.022 mPa·s; viscosity (298.15 K, x1 = 0.4007): 4.532 ± 0.03 mPa·s; viscosity (298.15 K, x1 = 0.4965): 5.665 ± 0.037 mPa·s; viscosity (298.15 K, x1 = 0.582): 6.682 ± 0.043 mPa·s; viscosity (298.15 K, x1 = 0.6955): 8.09 ± 0.052 mPa·s; viscosity (298.15 K, x1 = 0.7732): 9.002 ± 0.059 mPa·s; viscosity (298.15 K, x1 = 0.8997): 10.5 ± 0.07 mPa·s; viscosity (298.15 K, x1 = 1): 11.62 ± 0.079 mPa·s; mass density (298.15 K, x1 = 0.0997): 819.4 ± 0.3 kg/m3; mass density (298.15 K, x1 = 0.1995): 848.3 ± 0.3 kg/m3; mass density (298.15 K, x1 = 0.2978): 867.1 ± 0.3 kg/m3; mass density (298.15 K, x1 = 0.4007): 881.8 ± 0.3 kg/m3; mass density (298.15 K, x1 = 0.4965): 892 ± 0.3 kg/m3; mass density (298.15 K, x1 = 0.582): 899 ± 0.4 kg/m3; mass density (298.15 K, x1 = 0.6955): 906.6 ± 0.4 kg/m3; mass density (298.15 K, x1 = 0.7732): 910.8 ± 0.4 kg/m3; mass density (298.15 K, x1 = 0.8997): 916.5 ± 0.4 kg/m3; mass density (298.15 K, x1 = 1): 920.1 ± 0.4 kg/m3; viscosity (303.15 K, x1 = 0.0997): 1.404 ± 0.011 mPa·s; viscosity (303.15 K, x1 = 0.1995): 2.176 ± 0.015 mPa·s; viscosity (303.15 K, x1 = 0.2978): 3.025 ± 0.02 mPa·s; viscosity (303.15 K, x1 = 0.4007): 3.948 ± 0.026 mPa·s; viscosity (303.15 K, x1 = 0.4965): 4.896 ± 0.032 mPa·s; viscosity (303.15 K, x1 = 0.582): 5.732 ± 0.038 mPa·s; viscosity (303.15 K, x1 = 0.6955): 6.862 ± 0.045 mPa·s; viscosity (303.15 K, x1 = 0.7732): 7.619 ± 0.051 mPa·s; viscosity (303.15 K, x1 = 0.8997): 8.806 ± 0.06 mPa·s; viscosity (303.15 K, x1 = 1): 9.708 ± 0.067 mPa·s; mass density (303.15 K, x1 = 0.0997): 815.1 ± 0.3 kg/m3; mass density (303.15 K, x1 = 0.1995): 844.2 ± 0.3 kg/m3; mass density (303.15 K, x1 = 0.2978): 863.1 ± 0.3 kg/m3; mass density (303.15 K, x1 = 0.4007): 877.9 ± 0.3 kg/m3; mass density (303.15 K, x1 = 0.4965): 888 ± 0.4 kg/m3; mass density (303.15 K, x1 = 0.582): 895.1 ± 0.4 kg/m3; mass density (303.15 K, x1 = 0.6955): 902.8 ± 0.4 kg/m3; mass density (303.15 K, x1 = 0.7732): 907 ± 0.4 kg/m3; mass density (303.15 K, x1 = 0.8997): 912.6 ± 0.4 kg/m3; mass density (303.15 K, x1 = 1): 916.4 ± 0.4 kg/m3

Q: Which viscosity (293.15 K, x2 = 0) does the source give for `CCCCCC` [hexane] + CCCCC(CC)COP(=O)(OCC(CC)CCCC)OCC(CC)CCCC here?
A: 0.319 ± 0.006 mPa·s

Q: What about the mass density (293.15 K, x2 = 0) of the same molecule?
A: 659.9 ± 0.2 kg/m3

Q: And the viscosity (298.15 K, x2 = 0)?
A: 0.304 ± 0.006 mPa·s

Q: And the mass density (298.15 K, x2 = 0)?
A: 655.3 ± 0.2 kg/m3

Q: And the viscosity (303.15 K, x2 = 0)?
A: 0.29 ± 0.006 mPa·s

Q: And the mass density (303.15 K, x2 = 0)?
A: 650.8 ± 0.2 kg/m3

Q: With `C1CCCCC1` [cyclohexane] + CCCCC(CC)COP(=O)(OCC(CC)CCCC)OCC(CC)CCCC as the molecule, how does the viscosity (293.15 K, x2 = 0) read?
A: 0.984 ± 0.009 mPa·s

Q: And the mass density (293.15 K, x2 = 0)?
A: 778.6 ± 0.3 kg/m3

Q: And the viscosity (298.15 K, x2 = 0)?
A: 0.903 ± 0.008 mPa·s

Q: What about the mass density (298.15 K, x2 = 0) of the same molecule?
A: 773.9 ± 0.3 kg/m3

Q: And the viscosity (303.15 K, x2 = 0)?
A: 0.83 ± 0.008 mPa·s

Q: And the mass density (303.15 K, x2 = 0)?
A: 769.2 ± 0.3 kg/m3
